Source: PubChem BioAssay (NCI)
Where “and” joins values, the source holds several entries; their conditions need not be identical. Equal values may be shown once.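 Five compound concentrations were applied to cells in 96-well plates for 48 hours; endpoints were derived by simple linear interpolation of the resulting dose-response curve. GI50 marks 50% less growth. TGI denotes the concentration required for complete inhibition of growth.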 *1 amine or outer side, *2 acyl side, *3 side chain or, on linkers, in order; H or OH if unused. Where a SMILES comes first, the peptide text is derived from it. Bridges are numbered along the chain shown (N, C = ends). Roman numbers before positions name the chains, in order. [ ]: non-standard residue; d: D form. Actinocin(9to1) = Cc1c2oc3c(C)ccc(C(=O)[*:1])c3nc-2c(C(=O)[*:2])c(N)c1=O; NMeH = CN[CH](Cc1c[nH]cn1)C(=O)O; Sar = CNCC(=O)O

Columns and labels:
Assay in all cases: NCI tumour cell line growth inhibition, 48 h
TK-10 renal = system: TK-10 renal
NCI-H460 lung = system: NCI-H460 lung
PC-3 prostate = system: PC-3 prostate
HCC-2998 colon = system: HCC-2998 colon
DU-145 prostate = system: DU-145 prostate
OVCAR-5 ovarian = system: OVCAR-5 ovarian
UO-31 renal = system: UO-31 renal
A549 NSCLC = system: A549 NSCLC
UACC-257 melanoma = system: UACC-257 melanoma
UACC-62 melanoma = system: UACC-62 melanoma

Structure (SMILES) | TGI (TK-10 renal) | TGI (NCI-H460 lung) | TGI (PC-3 prostate) | TGI (HCC-2998 colon) | TGI (DU-145 prostate) | TGI (OVCAR-5 ovarian) | TGI (UO-31 renal) | TGI (A549 NSCLC) | TGI (UACC-257 melanoma) | TGI (UACC-62 melanoma) | GI50 (TK-10 renal) | GI50 (OVCAR-5 ovarian) | GI50 (UO-31 renal) | GI50 (UACC-257 melanoma) | GI50 (PC-3 prostate) | GI50 (HCC-2998 colon) | GI50 (NCI-H460 lung) | GI50 (UACC-62 melanoma) | GI50 (DU-145 prostate)
N#C/C(=C/C=C/c1ccco1)C(N)=O | > 10 µM | > 10 µM | > 10 µM | > 10 µM | > 10 µM | > 10 µM | > 10 µM | – | – | – | – | – | – | – | – | – | – | – | –
CCc1cccc2c3c([nH]c12)-c1ccccc1NC(=O)C3 | > 100 µM | > 100 µM | – | – | > 100 µM | > 100 µM | > 100 µM | > 100 µM | > 100 µM | > 100 µM | – | – | – | – | – | – | – | – | –
C(/C=N/NC1=NCCCCN1)=N\NC1=NCCCCN1 | > 100 µM | > 100 µM | > 100 µM | > 100 µM | – | > 100 µM | > 100 µM | > 100 µM | > 100 µM | > 100 µM | – | – | – | – | – | – | – | – | –
Cc1c2oc3c(C)ccc(C(=O)NC4C(=O)NC(C(C)C)C(=O)N5CCCC5C(=O)N(C)CC(=O)N(C)C(Cc5cnc[nH]5)C(=O)OC4C)c3nc-2c(C(=O)NC2C(=O)NC(C(C)C)C(=O)N3CCCC3C(=O)N(C)CC(=O)N(C)C(Cc3cnc[nH]3)C(=O)OC2C)c(N)c1=O (configuration not stated) (I: TVP[Sar][NMeH] / II: TVP[Sar][NMeH]; ester I:1-I:C, II:1-II:C; linker I:N-II:N via Actinocin(9to1); configuration not given here) | > 100 µM | > 100 µM | > 100 µM | > 100 µM | – | > 100 µM | > 100 µM | > 100 µM | > 100 µM | > 100 µM | – | – | – | – | – | – | – | – | –
CCC1(O)CC(OC2CC(N(C)C)C(OC3CC(O)C(OC4OC(C)C(=O)C=C4N)C(C)O3)C(C)O2)c2c(cc3c(c2O)C(=O)c2c(O)cccc2C3=O)C1C(=O)OC (configuration not stated) | 1.1 µM and 2.31 µM | – | 0.333 µM and 1.1 µM | 0.0824 µM and 0.0294 µM | 1.7 µM and 1.71 µM | 1.37 µM and 2.04 µM | 0.96 µM and 0.809 µM | 1.63 µM | 0.553 µM and 0.356 µM | 0.17 µM and 0.0324 µM | 0.0398 µM | 0.0152 µM | 0.106 µM | – | – | – | – | – | –
CC(C(=O)OCc1ccccc1)N(Cc1ccccc1)Cc1ccccc1 (configuration not stated) | > 100 µM | > 100 µM | – | > 100 µM | – | > 100 µM | > 100 µM | > 100 µM | > 100 µM | > 100 µM | – | – | – | – | – | – | – | – | –
C1=NCCNCCNCCN=Cc2ccc(cc2)OCc2cccc(n2)COc2ccc1cc2 | – | > 100 µM | > 100 µM | – | > 100 µM | > 100 µM | > 100 µM | > 100 µM | > 100 µM | > 100 µM | – | – | – | – | – | – | – | – | –
NS(=O)(=O)c1nc(S(=O)(=O)O)c2[nH]cnc2n1 | > 100 µM | > 100 µM | > 100 µM | – | – | > 100 µM | > 100 µM | > 100 µM | > 100 µM | > 100 µM | – | – | – | – | – | – | – | – | –
C#CC(O)(c1nc2ccccc2s1)c1nc2ccccc2s1 | > 100 µM | – | 64.7 µM | – | > 100 µM | 51.6 µM | 29.4 µM | > 100 µM | 88.5 µM | 26.1 µM | – | – | – | – | – | – | – | – | –
Cc1c(CNc2ccc(C(=O)NC(CCCNC(=O)c3ccccc3C(=O)O)C(=O)O)cc2)cnc2nc(N)nc(N)c12 (configuration not stated) | – | – | > 100 µM | – | > 100 µM | > 100 µM | – | > 100 µM | > 100 µM | – | > 100 µM | – | – | > 100 µM | < 0.0001 µM | 0.167 µM | – | – | –
COc1ccc(C2C3=C(N=C4SC(C(C)=O)=C(C)N42)c2ccccc2CC3)cc1 (configuration not stated) | – | – | > 100 µM | > 100 µM | > 100 µM | > 100 µM | > 100 µM | > 100 µM | > 100 µM | > 100 µM | – | – | – | – | – | – | – | – | –
COc1ccccc1OCC(COC(=O)Nc1ccccc1)OC(=O)Nc1ccccc1 (configuration not stated) | > 100 µM | > 100 µM | – | > 100 µM | – | > 100 µM | > 100 µM | > 100 µM | > 100 µM | > 100 µM | – | – | – | – | – | – | – | – | –
CNc1nnc(CCCCCCCCc2nnc(NC)o2)o1 | > 100 µM | > 100 µM | > 100 µM | – | > 100 µM | > 100 µM | > 100 µM | > 100 µM | > 100 µM | – | – | – | – | – | – | – | – | – | –
c1nc(NCCc2cnc[nH]2)c2[nH]cnc2n1 | > 100 µM | > 100 µM | > 100 µM | – | > 100 µM | > 100 µM | > 100 µM | > 100 µM | > 100 µM | > 100 µM | – | – | – | – | – | – | – | – | –
Cc1cc2[nH]c3c(C#N)c(-c4ccccc4)c(N=Nc4ccc(F)cc4)c(=O)n3c2cc1C | > 100 µM | > 100 µM | > 100 µM | > 100 µM | – | > 100 µM | > 100 µM | > 100 µM | > 100 µM | – | – | – | – | – | – | – | – | – | –
O=C1NC(=O)c2ccccc2/C1=C/c1ccc2c(c1)OCO2 | > 100 µM | – | – | 38.9 µM | > 100 µM | > 100 µM | 32.4 µM | > 100 µM | 55.3 µM | 54.3 µM | – | – | – | – | – | – | – | – | –
O=C(Nc1sccc1S(=O)(=O)c1ccc(Cl)cc1)c1ccc(F)cc1F | 42.7 µM | – | > 100 µM | > 100 µM | > 100 µM | 81.3 µM | 47.7 µM | > 100 µM | > 100 µM | 86.8 µM | – | – | – | – | – | – | – | – | –
CN(Cc1cnc2nc(N)nc(N)c2n1)c1ccc(C(=O)NC23CC4CC(CC(C4)C2)C3)cc1 | 30.8 µM | 18.6 µM | 19 µM | – | 38.1 µM | 24.7 µM | 24.1 µM | – | 25.6 µM | 19.3 µM | – | – | – | – | – | – | – | – | –
CC1=NN(c2cccc(Cl)c2)C2(C1=Cc1ccc(O)cc1)C(Cl)C(=O)N2c1nc2ccccc2s1 (configuration not stated) | > 100 µM | 89.3 µM | 51.9 µM | 35 µM | 67.9 µM | > 100 µM | 30.6 µM | – | > 100 µM | – | – | – | – | – | – | – | – | – | –
O=c1c2cc(C(F)(F)F)ccc2sc2c(NCCCNCCO)nc3ccccc3c12 | – | 2.57 µM | 3.24 µM | 3.29 µM | 3.23 µM | 3.04 µM | 2.74 µM | – | – | 3.25 µM | – | 1.63 µM | 1.37 µM | – | 1.69 µM | 1.67 µM | 1.22 µM | 1.78 µM | 1.74 µM
CN1/C(=C/C=C/C=C/C=C2C(=O)c3ccccc3C2=O)C(C)(C)c2ccccc21 | > 100 µM | > 100 µM | – | – | > 100 µM | > 100 µM | > 100 µM | > 100 µM | 54.1 µM | 58.3 µM | – | – | – | – | – | – | – | – | –
